What was measured:
Myzus persicae = experiment: Insecticidal test on Myzus persicae (cabbage leaf spray); type: in vivo; conditions: 144 h, 500 ppm solution sprayed (2.5 mg/cm^2), apterous adults on cabbage leaves, 6 days after, 25° C.
Procedure: Wet absorbent cotton was laid on glass dishes having an inner diameter of 3 cm, and covered with leaves of cabbage cut into circles of the same diameter, and 4 apterous adults of Myzus persicae were released. […] The solutions were sprayed from a rotary spray tower (2.5 mg/cm^2), and the dishes were covered with lids and placed in an incubator at 25° C. 6 Days after, dead insects were counted, and the mortality was calculated by using the same equation as in Test Example 1. The test was carried out in duplicate.

Nilaparvata lugens [1] = experiment: Insecticidal test on Nilaparvata lugens (rice sheaths soaked); type: in vivo; conditions: 144 h, 500 ppm solution, 3rd-instar larvae, 6 days after, 25° C.
Procedure: Rice sheaths were soaked in the solutions for about 10 seconds. After the soaking, the rice sheaths were dried in air and put in test tubes. In each tube, five 3rd-instar larvae of Nilaparvata lugens were released, and the tubes were capped with sponge and placed in an incubator at 25° C. 6 Days after, dead insects in the test tubes were counted, and the mortality (%) (the number of dead insects÷the number of released insects×100) was calculated. The test was carried out in duplicate.

[2] = test system: Frankliniella occidentalis; experiment: Insecticidal activity on Frankliniella occidentalis (kidney bean leaf spray); type: in vivo; conditions: 48 h, 500 ppm solution sprayed (2.5 mg/cm^2), larvae on kidney bean leaves, 2 days after
Procedure: In styrol cups having an inner diameter of 7 cm, wet filter paper was laid, kidney bean leaves cut into a 3 cm square were laid on the paper, and each leaf was inoculated with 20 larvae of Frankliniella occidentalis. […] 2.5 ml of the solutions were sprayed from a rotary spray tower into the styrol cups (2.5 mg/cm^2).
2 Days after, dead insects were counted, and insect damage on kidney bean leaves was examined. The mortality was calculated by using the same equation as in Test Example 1.
The insect damage degree was evaluated as follows. 1: 0 to 20% insect damage, 2: 20 to 50% insect damage, 3: 50 to 70% insect damage, and 4: 70% or higher insect damge. The test was carried out in duplicate.

Ctenocephalides felis = experiment: Test on the effect on Ctenocephalides felis (thin film in glass container); type: in vivo; conditions: 96 h, application dose 10 μg/cm^2, adults, 4 days after release, 25° C.
Procedure: (§1) 350 μl of the solutions were applied to the bottoms and the side walls of glass containers with an inner wall surface area of 35 cm^2, and acetone was volatilized to prepare thin films of the compounds on the inner walls of the glass containers. Since the inner wall surface area of each glass container was 35 cm^2, the application dose was 10 μg/cm^2.
(§2) To each glass container, five adults (male and female) of Ctenocephalides felis were released, and the containers were covered with lids and placed in an incubator at 25° C. 4 Days after the release of the fleas, dead fleas were counted, and the mortality was calculated by using the same equation as in Test Example 1.

Plutella xylostella [3] = experiment: Insecticidal test on Plutella xylostella (cabbage leaves soaked); type: in vivo; conditions: 144 h, 500 ppm solution, 3rd-instar larvae, 6 days after, 25° C.
Procedure: (§3) Leaves of cabbage were soaked in the solutions for about 10 seconds. After the soaking, the leaves were dried in air and placed in dishes. In each dish, five 3rd-instar larvae of Plutella xylostella were released, and the dishes were covered with lids and placed in an incubator at 25° C. 6 Days after, dead insects in the dishes were counted, and the mortality was calculated by using the same equation as in Test Example 1. The test was carried out in duplicate.

Spodoptera litura = experiment: Insecticidal test on Spodoptera litura (cabbage leaves soaked); type: in vivo; conditions: 144 h, 500 ppm solution, 3rd-instar larvae, 6 days after, 25° C.
Procedure: as §3, with “Spodoptera litura” for “Plutella xylostella”

Nilaparvata lugens [4] = experiment: Systemic insecticidal test on Nilaparvata lugens (rice seedling root dip); type: in vivo; conditions: 20 ppm solution, rice seedling roots dipped 7 days, 3rd-instar larvae, 6 days after release, 25° C.
Procedure: 7 Days after, the rice seedlings were picked and put in test tubes, and in each tube, five 3rd-instar larvae of Nilaparvata lugens were released, and the tubes were capped with sponge and placed in an incubator at 25° C. 6 Days after the release of the insects, dead insects were counted, and the mortality (%) (the number of dead insects÷the number of released insects×100) was calculated. The test was carried out in duplicate.

Rhipicephalus sanguineus = experiment: Test on the effect on Rhipicephalus sanguineus (thin film in glass container); type: in vivo; conditions: 96 h, application dose 10 μg/cm^2, protonymphs, 4 days after release, 25° C.
Procedure: as §1
as §2, with “protonymphs” for “adults”, “Rhipiceohalus sanguineus” for “Ctenocephalides felis”, “ticks,” for “fleas,”, “ticks” for “fleas”

Plutella xylostella [5] = experiment: Soil irrigation test on Plutella xylostella; type: in vivo; conditions: 144 h, 500 ppm solution, 10 ml soil irrigation of cabbage seedlings, leaves picked 5 days after, 3rd-instar larvae, 6 days after
Procedure: The soil around the bases of cabbage seedlings (at the 2.5-leaf stage) planted in plastic cups was irrigated with 10 ml of the solutions. After the irrigation, the cabbage seedlings were placed in a greenhouse. 5 Days after the irrigation, leaves of cabbage were picked and placed in dishes. In each dish, five 3rd-instar larvae of Plutella xylostella were released, and the dishes were covered with lids and placed in an incubator at 25° C. 6 Days after, dead insects in the dishes were counted, and the mortality was calculated by using the same equation as in Test Example 1. The test was carried out in duplicate.

Bemisia argentifolii = experiment: Insecticidal test on Bemisia argentifolii (kidney bean leaf spray); type: in vivo; conditions: 120 h, 500 ppm solution sprayed (2.5 mg/cm^2), adults on kidney bean leaves, 5 days after, 25° C.
Procedure: In styrol cups having an inner diameter of 7 cm, wet filter paper was laid, and kidney bean leaves cut to 3 cm were laid on the paper. […] The leaves were dried in air, and adults of Bemisia argentifolii were released in the cups, and the cups were covered with lids and placed in an incubator at 25° C. 5 Days after, dead insects were counted, and the mortality was calculated by using the same equation as in Test Example 1. The test was carried out in duplicate.

Row | melting point [°C] | Structure (SMILES) | mortality at 500 ppm (Myzus persicae) [%] | mortality at 500 ppm (Nilaparvata lugens [1]) [%] | mortality at 500 ppm [2] [%] | mortality at 10 µg/cm2 (Ctenocephalides felis) [%] | mortality at 500 ppm (Plutella xylostella [3]) [%] | mortality at 500 ppm (Spodoptera litura) [%] | mortality at 20 ppm (Nilaparvata lugens [4]) [%] | mortality at 10 µg/cm2 (Rhipicephalus sanguineus) [%] | pest or weed control at 500 ppm (Plutella xylostella [5]) [%] | mortality at 500 ppm (Bemisia argentifolii) [%]
1 | 94 to 96 | CCCCC(CC)COC(=O)CCSc1cnc2c(c1)nc(-c1nc3cc(C(F)(F)F)ccn3c1SCC)n2C (stereo not shown) [1-1-028b, 2-ethylhexyl 3-((2-(3-(ethylthio)-7-(trifluoromethyl)imidazo[1,2-a]pyridin-2-yl)-3-methyl-3H-imidazo[4,5-b]pyridin-6-yl)thio)propanoate] |  |  |  |  |  |  |  |  |  | 
2 |  | CC[S+]([O-])c1c(-c2nc3cc(C(F)(F)F)cnc3n2C)nc2cc(C(F)(F)F)cnn12 (stereo not shown) [1-1-057c, 2-[3-(ethylsulfinyl)-7-(trifluoromethyl)imidazo[1,2-b]pyridazin-2-yl]-3-methyl-6-(trifluoromethyl)-3H-imidazo[4,5-b]pyridine] | ≥ 90 | ≥ 90 | ≥ 50 | ≥ 50 | ≥ 90 | ≥ 90 | ≥ 90 | ≥ 50 |  | 
3 |  | CCS(=O)(=O)c1c(-c2nc3cc(C(F)(F)F)cnc3n2C)nc2cc(C(F)(F)F)ccn12 [1-1-002a, 2-[3-(ethylsulfonyl)-7-(trifluoromethyl)imidazo[1,2-a]pyridin-2-yl]-3-methyl-6-(trifluoromethyl)-3H-imidazo[4,5-b]pyridine] | ≥ 90 | ≥ 90 |  | ≥ 50 | ≥ 90 | ≥ 90 | ≥ 90 | ≥ 50 | ≥ 90 | 
4 | 220 to 222 | CCSc1c(-c2nc3cc(C(F)(F)F)cnc3n2C)nc2cnc(C(F)(F)F)cn12 [1-1-029b, 2-[3-(ethylthio)-6-(trifluoromethyl)imidazo[1,2-a]pyrazin-2-yl]-3-methyl-6-(trifluoromethyl)-3H-imidazo[4,5-b]pyridine] |  |  |  |  |  |  |  |  |  | 
5 |  | CCS(=O)(=O)c1c(-c2nc3cc(C(F)(F)F)cnc3n2C)sc2ccc(C(F)(F)F)cc12 [3-1-002a, 2-[3-(ethylsulfonyl)-5-(trifluoromethyl)benzo[b]thiophen-2-yl]-3-methyl-6-(trifluoromethyl)-3H-imidazo[4,5-b]pyridine] | ≥ 90 | ≥ 90 | ≥ 50 | ≥ 50 | ≥ 90 | ≥ 90 |  | ≥ 50 |  | ≥ 90
6 |  | CCSc1c(-c2nc3cc(C(F)(F)F)cnc3n2C)sc2ccc(C(F)(F)F)cc12 [3-1-002b, 2-[3-(ethylthio)-5-(trifluoromethyl)benzo[b]thiophen-2-yl]-3-methyl-6-(trifluoromethyl)-3H-imidazo[4,5-b]pyridine] |  |  |  | ≥ 50 | ≥ 90 | ≥ 90 | ≥ 90 | ≥ 50 |  | 
7 | 164 to 166 | CCSc1c(-c2nc3nc(C(F)(F)F)ccc3n2C)nc2cc(C(F)(F)F)ccn12 [1-7-001b, 2-[3-(ethylthio)-7-(trifluoromethyl)imidazo[1,2-a]pyridin-2-yl]-1-methyl-5-(trifluoromethyl)-1H-imidazo[4,5-b]pyridine] |  |  |  |  |  |  |  |  |  | 
8 |  | CCS(=O)(=O)c1c(-c2nc3cc(C(F)(F)F)c[n+]([O-])c3n2C)nc2cc(C(F)(F)F)ccn12 [1-14-001a, 2-[3-(ethylsulfonyl)-7-(trifluoromethyl)imidazo[1,2-a]pyridin-2-yl]-3-methyl-6-(trifluoromethyl)-3H-imidazo[4,5-b]pyridine 4-oxide] | ≥ 90 | ≥ 90 |  | ≥ 50 | ≥ 90 | ≥ 90 | ≥ 90 |  | ≥ 90 | ≥ 90
9 | 230 to 233 | CCSc1c(-c2nc3cc(I)cnc3n2C)nc2cc(C(F)(F)F)ccn12 [1-1-026b, 2-[3-(ethylthio)-7-(trifluoromethyl)imidazo[1,2-a]pyridin-2-yl]-6-iodo-3-methyl-3H-imidazo[4,5-b]pyridine] |  |  |  |  |  |  |  |  |  | 
10 | 150 to 160 | CCSc1c(-c2nc3cc(C(F)(F)F)cnc3s2)nc2cc(C(F)(F)F)ccn12 [1-13-001b, 2-[3-(ethylthio)-7-(trifluoromethyl)imidazo[1,2-a]pyridin-2-yl]-6-(trifluoromethyl)thiazolo[5,4-b]pyridine] |  |  |  |  |  |  |  |  |  | 
11 |  | CCS(=O)(=O)c1c(-c2cn3cnc(C(F)(F)F)cc3n2)nc2cc(C(F)(F)F)ccn12 [1-3-001a, 2-[3-(ethylsulfonyl)-7-(trifluoromethyl)imidazo[1,2-a]pyridin-2-yl]-7-(trifluoromethyl)imidazo[1,2-c]pyrimidine] | ≥ 90 | ≥ 90 |  | ≥ 50 | ≥ 90 | ≥ 90 | ≥ 90 |  | ≥ 90 | ≥ 90
12 |  | CCS(=O)(=O)c1c(-c2nc3cc(C(F)(F)F)cnc3n2C)nc2cc(C(F)(F)F)cnn12 [1-1-057a, 2-[3-(ethylsulfonyl)-7-(trifluoromethyl)imidazo[1,2-b]pyridazin-2-yl]-3-methyl-6-(trifluoromethyl)-3H-imidazo[4,5-b]pyridine] | ≥ 90 | ≥ 90 | ≥ 50 | ≥ 50 | ≥ 90 | ≥ 90 | ≥ 90 | ≥ 50 | ≥ 90 | 
13 |  | CCS(=O)(=O)c1c(-c2nc3cc(C(F)(F)F)ncc3n2C)nc2cc(C(F)(F)F)ccn12 [1-8-005a, 2-[3-(ethylsulfonyl)-7-(trifluoromethyl)imidazo[1,2-a]pyridin-2-yl]-3-methyl-6-(trifluoromethyl)-3H-imidazo[4,5-c]pyridine] | ≥ 90 | ≥ 90 |  | ≥ 50 | ≥ 90 | ≥ 90 | ≥ 90 | ≥ 50 | ≥ 90 | 

From patent US10882869B2, “Condensed heterocyclic compounds and pesticides” (NISSAN CHEMICAL CORPORATION, priority 2015, dated 2021)
